Measurements from PubChem BioAssay AID1645865 (Buhrlage Lab, Dana-Farber Cancer Institute and Novartis …, 2021).
Calls of active or inactive are those of the source.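 The calls were made as follows: active = maximal inhibition of the USP30 enzyme reaching 30% or more across the dose series; inactive = the rest.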

target: Ubiquitin carboxyl-terminal hydrolase 30 (Homo sapiens) (UniProt Q70CQ3); assay: inhibitors of ubiquitin-specific protease 30 deubiquitylating enzyme, concentration dependence, in vitro biochemical, validation of primary hits (AID 1645865); conditions: purified USP30, Ub-rhodamine cleavage, fluorescence, 2 h
Sequence (Q70CQ3 whole entry, looked up): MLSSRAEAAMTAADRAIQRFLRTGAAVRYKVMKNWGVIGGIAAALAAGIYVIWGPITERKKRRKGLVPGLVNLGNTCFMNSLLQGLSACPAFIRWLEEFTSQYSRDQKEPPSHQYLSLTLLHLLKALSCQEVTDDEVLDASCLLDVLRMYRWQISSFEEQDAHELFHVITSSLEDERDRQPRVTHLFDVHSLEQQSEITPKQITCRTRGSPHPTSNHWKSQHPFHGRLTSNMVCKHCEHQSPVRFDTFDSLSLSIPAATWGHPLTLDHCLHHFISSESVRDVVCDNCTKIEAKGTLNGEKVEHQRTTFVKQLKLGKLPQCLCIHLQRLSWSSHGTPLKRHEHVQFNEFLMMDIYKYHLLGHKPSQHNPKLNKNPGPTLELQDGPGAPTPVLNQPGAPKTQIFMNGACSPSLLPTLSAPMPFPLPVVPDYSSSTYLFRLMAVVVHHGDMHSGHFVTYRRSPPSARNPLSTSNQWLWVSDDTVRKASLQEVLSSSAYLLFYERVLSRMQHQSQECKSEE

Structure (SMILES)	IC50
O=C1C[C@@H]2O[C@H](CNC(=O)[C@@H]3CN(CCN3C(=O)C3CCOCC3)C(=O)[C@@H]3C[C@@H](CN3Cc3ccc(F)c(F)c3)N1)[C@@H](O)[C@H]2O	> 50 µM (inactive)
Cc1c(C(=O)c2ccccc2)c2ccccn2c1CCc1ccccn1	> 50 µM (inactive)
CC1=C(c2ccc(F)cc2)S(=O)(=O)NC1=NCC(=O)Nc1cccc(F)c1	19.8 µM
C=C(NC(=O)C(=C)NC(=O)c1csc(-c2ccc3c(n2)-c2csc(n2)-c2csc(n2)C(C(C)C2CO2)NC(=O)C(Cc2ccc(O)cc2)NC(=O)c2csc(n2)C(C(O)c2ccccc2)NC(=O)c2nc(sc2C)C(CC(N)=O)NC(=O)c2csc-3n2)n1)C(=O)O (centres undefined)	> 50 µM (inactive)
O=C(COc1cccc2ccc(N3CCC(Cc4ccccc4)CC3)nc12)NCc1ccc(F)cc1	23.1 µM
CNC(=O)C1CN(C(=O)c2ccc(OC)cc2)CC12CCCC2 (centres undefined)	> 50 µM (inactive)
CC(=O)Nc1ccc(S(=O)(=O)N2CCCC(C(=O)Nc3cccc4ccccc34)C2)cc1 (centres undefined)	25.5 µM
COc1ccc(-c2cc(N3CCC(NC(=O)c4ccccc4)C3)n[nH]2)cc1 (centres undefined)	19.8 µM
C[C@@H]1O[C@@H](O[C@H]2[C@H](O[C@H]3[C@H](O[C@H]4CC[C@@]5(C)[C@@H](CC[C@]6(C)[C@@H]5CC=C5[C@@H]7CC(C)(C)CC(=O)[C@]7(C)CC[C@]56C)[C@@]4(C)CO)O[C@H](C(=O)O)[C@@H](O)[C@@H]3O)OC[C@@H](O)[C@@H]2O)[C@H](O)[C@H](O)[C@H]1O	> 50 µM (inactive)
O=C(Nc1ccccc1Br)c1ccn(COc2ccccc2F)n1	14.8 µM
O=S(=O)(Cc1nnc(-c2ccccc2C(F)(F)F)o1)c1ccc(Cl)cc1	> 50 µM (inactive)
O=C1CN(C(=O)COC(=O)CCCN2C(=O)c3cccc4cccc(c34)C2=O)c2ccccc2N1	> 50 µM (inactive)
COc1ccc(C(=O)Nc2cc(F)c3nc(N4CCOCC4)ccc3c2)c(OC)c1	> 50 µM (inactive)
CC(C)(C)n1nc(C2CC2)c(Br)c1NC(=O)c1ccccc1F	34.1 µM
Cc1ccc(-n2cc3c(N4CCCC(C(=O)NCC5CCCCC5)C4)ncnc3n2)cc1 (centres undefined)	40.7 µM
Cc1cccc(C)c1NC(=O)Cn1c(=O)n(CCCCC(=O)NCc2ccc3c(c2)OCO3)c(=O)c2ccccc21	1.5 µM
COc1ccc(/C=C\c2nccc3c2[nH]c2ccccc23)cc1	> 50 µM (inactive)
CN1C(=O)c2cc(NC(=O)c3ccccc3Cl)ccc2Oc2ccccc21	> 50 µM (inactive)
O=C(Cc1c[nH]c2ccccc12)Nc1nc2ccccc2s1	> 50 µM (inactive)
Cc1ccc(C)c(-c2cc3c(=O)n(Cc4noc(CN5CCCCC5)n4)ccn3n2)c1	> 50 µM (inactive)
COc1cccc(-n2nnc(C(=O)Nc3ccc(C)c(C)c3)c2C)c1	> 50 µM (inactive)
Cc1noc(-c2cccn(Cc3cccc(C(F)(F)F)c3)c2=O)n1	> 50 µM (inactive)
Cc1noc(-c2cc(=O)n(CC(=O)NCc3ccccc3)c3ccccc23)n1	> 50 µM (inactive)
Cc1ccc(C(=O)Nc2cc3c4c(c2)CC(=O)N4CCC3)cc1	> 50 µM (inactive)

Structure (SMILES)	IC50
O=C(COc1ccc(Cl)cc1Cl)Nc1ccc2[nH]c(=O)[nH]c2c1	4.06 µM
FC(F)(F)c1ccccc1CCN1CCc2nc3ncc(Cl)cc3cc2C1	> 50 µM (inactive)
Cc1ccccc1C(=O)Nc1ccc(Cc2ccc(NC(=O)c3ccccc3C)c(O)c2)cc1O	> 50 µM (inactive)
COc1ccc(S(=O)(=O)N2CCN3Cc4ccccc4N(C)CC3C2)cc1 (centres undefined)	> 50 µM (inactive)
O=C(Cn1cnc2c(cnn2-c2ccc(Cl)cc2)c1=O)NCc1ccccc1Cl	2.33 µM
CC(=O)N1CCc2cc(S(=O)(=O)NCCC(=O)Nc3cccc(C)c3C)ccc21	39 µM
CCn1c(SCc2nc(N)c3ccccc3n2)nc2ccccc21	> 50 µM (inactive)
O=C(Nc1ccccc1)C1CCCN(C(=O)c2cc3ccccc3[nH]2)C1 (centres undefined)	25.3 µM
CCCC(=O)c1c[nH]c(C(=O)NCc2ccc(F)cc2)c1	17.4 µM
O=C(CSc1nc2ccncc2[nH]1)Nc1ccc(Br)cc1F	27.4 µM
Cn1c(=O)[nH]c(=O)c2c1nc1n(CCc3ccccc3)c(-c3ccccc3)cn21	37.5 µM
COc1ccc(NC(=O)COc2ccc3ccc(=O)oc3c2)cc1	34.8 µM
CCCCc1ccc(-c2cc(C(=O)NCCN3CCOCC3)c3cc(Br)ccc3n2)cc1	2.31 µM
CC(=O)C1=C(O)[C@]2(O)C(=O)c3c(c(C)c4ccc(C)c(O)c4c3O)C[C@H]2[C@@H](N)C1=O	4.68 µM
Cn1c2ccccc2c(=O)c2c(=O)n(Cc3ccccc3)c(-c3ccco3)nc21	1.56 µM
CO/C=C/C(=O)c1cc2cnc3c(=N)cc(NC(C)=O)c([nH]1)c23	> 50 µM (inactive)
O=C(Cn1cccc1-c1nc(-c2ccccc2)cs1)N1CCOCC1	20.6 µM
Cc1ccc(Nc2nc(O)c(CC(=O)Nc3ccccc3C)s2)cc1C	17.3 µM
CCCCN(CC)c1ncnc2c1sc1nc(-c3ccco3)c3c(c12)CC(C)(C)OC3	> 50 µM (inactive)
O=C(/C=C/c1ccc(F)cc1)Nc1ccc2c(c1)OCCO2	> 50 µM (inactive)
CCOC(=O)c1ccc(S(=O)(=O)N2CCC(C(=O)OC(C)C(=O)Nc3cccc([N+](=O)[O-])c3)CC2)cc1 (centres undefined)	2.51 µM
O=S(=O)(c1ccccc1Cl)N1CCN(c2ccc3nnc(-c4ccco4)n3n2)CC1	> 50 µM (inactive)
COC(=O)C1C(c2ccc(Cl)cc2Cl)C2(C(=O)c3ccccc3C2=O)C2C=Cc3ccccc3N12 (centres undefined)	> 50 µM (inactive)
COc1ccc(C(=O)Nc2ccc(S(=O)(=O)N3CCCCC3)cc2)cc1	> 50 µM (inactive)

Structure (SMILES)	IC50
N#Cc1cccnc1N1CCN(C(=O)Nc2cccc3ccccc23)CC1	> 50 µM (inactive)
COC(=O)c1sc2ccccc2c1NC(=O)c1ccc(Br)s1	21.5 µM
COc1cc(NC(=O)Cc2ccccc2)ccc1NC(=O)c1cc2ccccc2o1	2.32 µM
COc1cccc(NC(=O)c2ccc(F)cc2Cl)c1	> 50 µM (inactive)
COc1ccc(C(C(=O)NC2CCCCC2)N(C(=O)CCCC(=O)Nc2ccccn2)c2ccccc2C)cc1 (centres undefined)	19.3 µM
COc1cccc(NC(=O)Cc2sc(Nc3cc(C)cc(C)c3)nc2O)c1	23 µM
COc1ccc2nc(NC(=O)C(CC(C)C)NS(=O)(=O)c3ccc4c(c3)CCN4C(C)=O)sc2c1 (centres undefined)	31.1 µM
O=C(c1ccc(COc2cccc3ccccc23)o1)N1CCC(Cc2ccccc2)CC1	> 50 µM (inactive)
O=C(CSc1ncnc2c1oc1ccccc12)Nc1ccc2c(c1)OCCO2	18.7 µM
Cc1sc2ncnc(OCc3ccc(F)cc3Cl)c2c1C	> 50 µM (inactive)
O=C(NCc1ccc2c(c1)OCO2)c1[nH]nc2c1COc1ccccc1-2	1.97 µM
Cc1cc(CSc2ncccc2C(=O)Nc2ccnn2Cc2cccnc2)no1	> 50 µM (inactive)
O=C(CSc1nncc2ccccc12)Nc1ccc2c(c1)OCO2	> 50 µM (inactive)
Fc1ccc(Oc2nc(CN3CCOCC3)nc3sc4c(c23)CCCC4)c(Cl)c1	> 50 µM (inactive)
Cc1nc(SCC(=O)Nc2cc(Cl)ccc2C)c2oc3ccccc3c2n1	1.22 µM
O=C(NCCc1ccco1)c1ccc(N2CCOc3ccccc32)s1	27.4 µM
Cc1ccc(NC(=O)c2ccc3c(c2)N(S(C)(=O)=O)CC3)cc1	34 µM
Cc1cc(C)n2nc(CNc3cccc(Cl)c3)nc2n1	> 50 µM (inactive)
CC(=O)c1ccc(N2C(=O)N(Cc3cccc([N+](=O)[O-])c3)c3ccccc3S2(=O)=O)cc1	> 50 µM (inactive)
O=C(Nc1cc(F)c2nc(N3CCOCC3)ccc2c1)C1CC1	> 50 µM (inactive)
Nc1ncnc(SCc2ccc(Cl)cc2)n1	17.1 µM
COc1cccc2c1OCC(NS(=O)(=O)c1cc(C)ccc1C)C2 (centres undefined)	> 50 µM (inactive)
Cc1c(C)c2ccc(OCC(=O)NCc3ccncc3)c(C)c2oc1=O	31.1 µM
COc1ccc(-c2cc3nc(C)cc(Nc4ccc(F)cc4)n3n2)cc1OC	> 50 µM (inactive)

Structure (SMILES)	IC50
CCCCN(C)C(=O)c1cc2c(=O)n3cccc(C)c3nc2n1Cc1ccccc1	36.8 µM
Fc1ccc(Cn2ccc(-c3cnc(-c4ccccc4)s3)n2)cc1	> 50 µM (inactive)
CCc1cc(=O)n(CC(=O)Nc2cc(C)ccc2OC)c(N2CCOCC2)n1	26 µM
O=C(CC1C(=O)Nc2nc(-c3ccccc3)nn21)Nc1cccc2ccccc12 (centres undefined)	4.38 µM
COc1ccc(-n2nnc(C(=O)Nc3ccccc3)c2N)cc1	> 50 µM (inactive)
CCOC(=O)c1ccc(NC(=O)C[n+]2cc(-c3ccc(Cl)cc3)n3c2CCC3)cc1	38.5 µM
CCOc1ccc2c(c1)c(=O)c(C(=O)c1ccc(C)cc1)cn2CC(=O)Nc1ccc(OC)c(OC)c1	0.732 µM
O=C(NCc1ccco1)c1ccc2c(c1)N(Cc1cccc(F)c1)C(=O)c1ccccc1S2	> 50 µM (inactive)
Cc1cnnn1-c1ccc(C(=O)Nc2ccc(Cl)cc2)cc1	29.5 µM
Cc1nn(C)c2c1[C@@H](c1ccc(F)cc1)[C@H](NC(=O)c1ccccc1)C(=O)N2	> 50 µM (inactive)
CC(=O)c1cccc(NC(=O)c2ccc3[nH]c4c(c3c2)CC(C)CC4)c1 (centres undefined)	> 50 µM (inactive)
O=C(NC1CCN(c2nc(-c3cccnc3)nc3ccccc23)CC1)c1cccnc1	> 50 µM (inactive)
CCOc1ccc(NS(=O)(=O)c2ccc(NC(=O)Nc3ccccc3)cc2)cc1	17.3 µM
Cc1ccc2c(c1)c(=O)c(C(=O)c1ccc(F)cc1)cn2CC(=O)Nc1ccc2c(c1)OCCO2	> 5 µM (inactive)
COc1ccc(C(=O)CSc2ccc3nnc(CCNC(=O)c4ccc(OC)cc4)n3n2)cc1	> 50 µM (inactive)
Cc1ccn(-c2ccc(NC(=O)c3ccccc3Sc3ccccc3C#N)cc2)n1	34.9 µM
Cc1ccc(-c2cn(CC(=O)N3CCN(c4ccccn4)CC3)c(=O)o2)cc1	12.3 µM
O=C(NCc1ccc(Cl)cc1)Nc1cccc2ccccc12	25.3 µM
CC1OC2CC(O)C1(O)C1=C2C(=O)c2c(O)c3c(c(O)c2C1=O)[C@H](C)O[C@H]1CC(=O)O[C@@H]31 (some centres undefined)	> 50 µM (inactive)
O=C(Nc1ccc(F)c(Cl)c1)c1ccc(N2CCCCS2(=O)=O)cc1Cl	> 50 µM (inactive)
CCCCn1c(=O)c(CCC(=O)OCC(=O)Nc2ccc3c(c2)OCCO3)nc2ccccc21	> 50 µM (inactive)
CCCCNC(=O)c1cc2cccnc2n(Cc2ccccc2)c1=O	> 50 µM (inactive)
